In PubChem BioAssay (NCI):
Several values for one entry are separate records, joined by “and”; a condition that tells them apart may be missing. Equal entries are not always repeated.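 A five-concentration, 48-hour dose response in 96-well plates underlies each endpoint, interpolated linearly between surrounding concentrations. GI50 is the concentration that inhibits growth by half. TGI denotes the concentration required for complete inhibition of growth.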

Assays:
Assay in all cases: NCI anticancer screen, dose series, 48 h
A549 NSCLC = tested on: A549 NSCLC
LOX IMVI melanoma = tested on: LOX IMVI melanoma
TK-10 renal = tested on: TK-10 renal
T-47D breast = tested on: T-47D breast
SF-295 CNS = tested on: SF-295 CNS
MOLT-4 leukemia = tested on: MOLT-4 leukemia
OVCAR-8 ovarian = tested on: OVCAR-8 ovarian
SK-OV-3 ovarian = tested on: SK-OV-3 ovarian
SK-MEL-28 melanoma = tested on: SK-MEL-28 melanoma

SMILES | GI50 (A549 NSCLC) | TGI (A549 NSCLC) | GI50 (LOX IMVI melanoma) | TGI (LOX IMVI melanoma) [µM] | GI50 (TK-10 renal) | TGI (TK-10 renal) | GI50 (T-47D breast) | TGI (T-47D breast) | GI50 (SF-295 CNS) | TGI (SF-295 CNS) | GI50 (MOLT-4 leukemia) | TGI (MOLT-4 leukemia) | GI50 (OVCAR-8 ovarian) | TGI (OVCAR-8 ovarian) | GI50 (SK-OV-3 ovarian) | TGI (SK-OV-3 ovarian) | GI50 (SK-MEL-28 melanoma) | TGI (SK-MEL-28 melanoma)
COc1ccc(OC)c(/C=N/NC(=O)Cc2csc3nc(-c4ccc(Br)cc4)cn23)c1 | 11.6 µM | 38.7 µM | 12.6 µM | 47.4 | 16.3 µM | 51.2 µM | 41.2 µM | > 100 µM | 12.3 µM | 34.6 µM | 3.47 µM | 8.08 µM | 11.6 µM | 38.2 µM | 57.7 µM | > 100 µM | 41.5 µM | > 100 µM
Clc1ccc(CSC(Cn2ccnc2)c2ccc(Cl)cc2Cl)cc1 (stereo not drawn) | 1.42 µM | 3.13 µM | 1.59 µM | 2.93 | 1.53 µM | 2.89 µM | 0.999 µM | 2.76 µM | 1.37 µM | 2.89 µM | 1.72 µM | 4.87 µM | 1.6 µM | 3.32 µM | 1.7 µM | 3.91 µM | 1.69 µM | 3.06 µM
CN(C)CCOc1ccc(-c2nc(-c3ccc4c(c3)CC/C4=N\O)c(-c3ccncc3)[nH]2)cc1 | 4.76 µM and 6.36 µM | 9.68 µM and 32.7 µM | 0.934 µM and 1.51 µM | 6.46 | 5.66 µM and 5.27 µM | 10.1 µM and 10.4 µM | 4.8 µM and 7.63 µM | 9.55 µM and 30.6 µM | 4.6 µM and 8.82 µM | 9.42 µM and 21.4 µM | 5.74 µM and 3.53 µM | 12.2 µM and 25.7 µM | 4.84 µM and 3.2 µM | 10.1 µM and 8.96 µM | 3.67 µM and 9.66 µM | 7.52 µM and 22.1 µM | 0.0188 µM and 0.029 µM | 3.26 µM and 1.85 µM
CC[C@]12CCCN3CCc4c(n(c5ccccc45)C(=O)C1)[C@@H]32 | – | > 100 µM | – | > 100 | – | > 90 µM | – | > 100 µM | – | 18.4 µM | – | > 58.2 µM | – | > 100 µM | – | 87.7 µM | – | > 100 µM
COC(=O)[C@@]12C(=O)C=CC(=O)[C@@H]1C1C(=CC2COC(C)=O)O[C@@H]2OC3(CCCCC3)O[C@H]12 (stereo partly drawn) | – | 22.4 µM | – | 24.6 | – | 20.6 µM | – | 13.2 µM | – | 29.7 µM | – | 21 µM | – | 20 µM | – | 30 µM | – | 32.7 µM
O=C1C(Cl)=C(Nc2cccc(Cl)c2)C(=O)N1Cc1ccccc1 | 16.1 µM | 39.9 µM | 4.01 µM | 15.3 | 13.9 µM | 32.3 µM | 33.8 µM | > 100 µM | 6.28 µM | 20.1 µM | 3.38 µM | > 100 µM | 4.63 µM | 32 µM | 15.7 µM | 35 µM | 19.5 µM | 55.5 µM
CC(=O)NCCc1c2c(c3nccc4c3c1Nc1ccccc1-4)OCS2 | 1.29 µM | 11.3 µM | 1.26 µM | 3.85 | 5.56 µM | 18.9 µM | 2.39 µM | 12.8 µM | 1.87 µM | 15.1 µM | 2.38 µM | > 100 µM | 2.09 µM | > 33.1 µM | 1.52 µM | 18.8 µM | 3.45 µM | 15.7 µM
